Results on one compound are retold here after patent publication US12576107B2, “Methods of treating chronic inflammatory diseases” (METIMEDI PHARMACEUTICALS CO., LTD., priority 2018, dated 2026).

In one test the test system is lactate dehydrogenase B. Description: Human fibroblast in vitro experiment, Western blot in CCD-18Co cells. It is filed as cell-based. As to conditions: 2.5 mM; CCD-18Co cells (human colon fibroblast); hypoxia. As to the method: Human Colon Fibroblast cell line, CCD-18-Co, was purchased from American Type Culture Collection (Manassas, VA, USA). The CCD-18Co cells were maintained in DMEM containing 10% fetal bovine serum (Life Technologies, Gaithersburg, MD, USA), 100 IU/ml penicillin, and 100 μg/ml streptomycin (Welgene, Daegu, South Korea).
(§1) To prepare whole cell lysate, cells were lysed with lysis buffer (1% NP-40, 0.25% sodium deoxycholate, 150 mM NaCl, 1 mM EDTA, 1% Triton X-100, 50 mM Tris-HCl (pH 7.4), 10% Glycerol) with protease inhibitor cocktail (Roche, Basel, Switzerland) and phosphatase inhibitors (NA3VO4 1 mM, NaF 100 mM). Then, protein concentration was measured using the Bicinchoninic acid (BCA) assay kit (Thermo Scientific, Waltham, MA). Whole cell or nuclear lysates were transferred onto polyvinylidene fluoride membranes (Merck Millipore, Billerica, MA, USA). After blocking in 5% non-fat milk (Bio-Rad, Hercules, CA, USA) for 1 h, the membranes were incubated overnight at 4° C. with primary antibody diluted in TBST containing 100 mM Tris-HCl (pH 7.5), 1.5 M NaCl, and 0.5% Tween-20 obtained from Sigma-Aldrich, to which 5% BSA and 0.1% sodium azide (Sigma-Aldrich) had been added. Specific primary antibodies to HIF-1α (1:1000), HIF-2α (1:1000), LDH-A (1:1000), LDH-B (1:1000), TLR-4 (1:1000), NF-κB (1:1000), VEGF (1:1000), α-tubulin (1:1000), Actin (1:1000), and GAPDH (1:5000). […]

Another test concerns hypoxia-mediated factors. The experiment in a line: Brain CID in vitro experiment, Western blot in SK-N-SH cells. It counts as cell-based. As to conditions: 2.5 mM; SK-N-SH cells (human neuroblastoma); normoxia and hypoxia. As to the method:
Human Brain cell line, SK-N-SH, was purchased from American Type Culture Collection (Manassas, VA, USA). The SK-N-SH cells were maintained in RPMI1640 containing 10% fetal bovine serum (Life Technologies, Gaithersburg, MD, USA), 100 IU/ml penicillin, and 100 μg/ml streptomycin (Welgene, Daegu, South Korea).
as §1

The test system of test [1] is LPS-injected spinal cord of rats. The experiment in a line: Multiple sclerosis / spinal cord injury model, intraspinal injection of LPS. As to conditions: 2 mg/kg daily subcutaneous 21 days. It counts as in vivo, Sprague-Dawley (SD) rats. As to the method:
Animals. […] Eight-week old male Sprague-Dawley (SD) rats were obtained from Samtako Co. (Osan, Gyeonggi-do, Republic of Korea) and bred under specific-pathogen-free (SPF) conditions. All animals were maintained in a 12-hour light/dark cycle at 22-25° C. with free access to food and water.
Dissolve 1 mg of LPS powder in 1 ml of saline. Keep the tubes on ice if LPS is going to be used fresh. For long storage, use screw cap vials are preferred. The aliquots were stored at deep freezer (−20° C.). Calcium lactate was purchased from Sigma Aldrich (St. Louis, USA).
Intraspinal injection of LPS. The animals were placed in a small acrylic cage that was coupled with an anesthesia machine that allowed them to breathe freely under gaseous anesthesia (2% isoflurane, Spartanburg, SC, USA). After full anesthesia of an animal was achieved, it was positioned on an operating table (while maintaining the gaseous anesthesia). For intraspinal injection of LPS, the laminectomy site of rats was exposed. Two small holes, 1 mm apart, were made in the dura over the left dorsal column. A volume of 1 μl of LPS solution was carefully drawn up into a sterile Hamilton syringe, and the LPS solution was slowly injected into the spinal cord. The syringe maintained in place for an additional 2 min to prevent back-flux from the injection site. Then, the injection site was closed by surgical clips.
Immunohistochemistry. […]

Regarding `CC(O)C(=O)[O-].CC(O)C(=O)[O-].[Ca+2]` (stereo not shown) [calcium lactate], the “lactate dehydrogenase B, Western blot” value in the test on lactate dehydrogenase B is reported as “increased”. The “hypoxia-mediated factors, Western blot” value in the test on hypoxia-mediated factors was “decreased”. In test [1], the demyelinated spinal cord entry is “Recovery” and the “microglia infiltration (Iba-1) in spinal cord” value is “reduction”.
